{
  "source": "paper PMC8533642",
  "about": "(Journal of medicinal chemistry, 2021)",
  "key": {"[1]": {"experiment": "Solubility in solvents compatible with RP-HPLC"}, "mMC1R": {"molecular_target": "mMC1R (Mus musculus, UniProt Q01727)", "sequence (Q01727 whole entry)": "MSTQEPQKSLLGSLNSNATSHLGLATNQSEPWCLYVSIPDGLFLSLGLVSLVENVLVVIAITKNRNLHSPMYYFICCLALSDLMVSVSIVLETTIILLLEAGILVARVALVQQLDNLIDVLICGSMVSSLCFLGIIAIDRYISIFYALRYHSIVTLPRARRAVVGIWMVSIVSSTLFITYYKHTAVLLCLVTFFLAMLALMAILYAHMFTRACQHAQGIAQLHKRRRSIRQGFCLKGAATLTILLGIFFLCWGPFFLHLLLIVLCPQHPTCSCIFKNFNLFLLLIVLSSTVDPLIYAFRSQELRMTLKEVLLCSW", "experiment": "AlphaScreen cAMP agonist assay, HEK293 cells stably expressing mMC1R", "format": "cell-based", "conditions": "for mMC1R partial agonist percentage of receptor activation relative to NDP-MSH: partial agonists"}, "mMC4R [2]": {"molecular_target": "T1, mMC4R (Mus musculus, UniProt P56450)", "T1 sequence (P56450 whole entry)": "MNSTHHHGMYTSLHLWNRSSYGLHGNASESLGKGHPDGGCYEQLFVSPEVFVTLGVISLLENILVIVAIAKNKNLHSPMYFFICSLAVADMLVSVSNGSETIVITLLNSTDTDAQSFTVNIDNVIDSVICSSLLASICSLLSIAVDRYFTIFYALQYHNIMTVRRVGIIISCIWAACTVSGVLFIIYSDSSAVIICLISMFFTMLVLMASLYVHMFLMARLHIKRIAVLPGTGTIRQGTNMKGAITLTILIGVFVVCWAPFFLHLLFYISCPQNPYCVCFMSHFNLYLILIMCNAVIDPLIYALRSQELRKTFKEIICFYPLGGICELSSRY", "conditions": "mMC4R versus mMC3R antagonist potency"}, "mMC4R [3]": {"molecular_target": "T1, mMC4R", "conditions": "earlier report; cited from earlier work"}, "mMC3R [4]": {"molecular_target": "T2, mMC3R (Mus musculus, UniProt P33033)", "T2 sequence (P33033 whole entry)": "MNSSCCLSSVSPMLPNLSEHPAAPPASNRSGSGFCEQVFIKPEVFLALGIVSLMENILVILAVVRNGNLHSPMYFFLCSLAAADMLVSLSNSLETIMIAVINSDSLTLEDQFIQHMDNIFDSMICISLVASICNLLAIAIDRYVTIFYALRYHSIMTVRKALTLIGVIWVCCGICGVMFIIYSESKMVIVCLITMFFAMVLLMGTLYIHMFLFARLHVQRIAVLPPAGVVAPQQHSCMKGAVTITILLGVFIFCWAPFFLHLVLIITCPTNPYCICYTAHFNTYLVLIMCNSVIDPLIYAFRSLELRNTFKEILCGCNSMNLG", "conditions": "earlier report; cited from earlier work"}, "mMC4R [5]": {"molecular_target": "T1, mMC4R", "conditions": "cited from earlier work"}, "[6]": {"conditions": "compared to a control formulation lacking glycinamide; cited from earlier work"}, "[7]": {"test_system": "mouse B16-F10 melanoma cells", "conditions": "30 and 100 μM, 100 nM α-MSH, 72 h; cited from earlier work"}, "hMC4R": {"test_system": "hMC4R", "conditions": "read-out: hMC4R IC50; tripeptide SAR study; cited from earlier work"}, "hMC3R": {"test_system": "hMC3R", "conditions": "cited from earlier work"}, "hMC1R": {"test_system": "hMC1R", "conditions": "cited from earlier work"}, "human (h)MC4R": {"test_system": "human (h)MC4R", "conditions": "cited from earlier work"}, "MC1R": {"test_system": "MC1R", "conditions": "at 2 μM; cited from earlier work"}, "MC3R": {"test_system": "MC3R", "conditions": "at 2 μM; cited from earlier work"}, "MC5R": {"test_system": "MC5R", "conditions": "cited from earlier work"}, "MC4R": {"test_system": "MC4R", "conditions": "at 2 μM; cited from earlier work"}, "hMC5R": {"test_system": "hMC5R", "conditions": "cited from earlier work"}, "mMC3R [8]": {"molecular_target": "T2, mMC3R", "conditions": "miniAGRP(87–120), β-galactosidase reporter gene assay; cited from earlier work"}, "mMC4R [9]": {"molecular_target": "T1, mMC4R", "conditions": "miniAGRP(87–120), β-galactosidase reporter gene assay; cited from earlier work"}},
  "note": "Like-named read-outs stand apart in the source and are kept apart here. Square brackets hold non-standard residues; d marks the D form. Peptide text beside a SMILES is read from it. dPhe(4-I) = N[C@H](Cc1ccc(I)cc1)C(=O)O; d2Nal = N[C@H](Cc1ccc2ccccc2c1)C(=O)O",
  "data": [
    {"compound": "CC(=O)N[C@H](Cc1ccc2ccccc2c1)C(=O)N[C@H](Cc1ccc2ccccc2c1)C(=O)N[C@H](Cc1ccc2ccccc2c1)C(=O)N[C@H](Cc1ccc2ccccc2c1)C(N)=O", "note": "[Ac-DNal(2’)-DNal(2’)-DNal(2’)-DNal(2’)-NH2] (Ac-[d2Nal][d2Nal][d2Nal][d2Nal]-NH2)", "values": [
      {"measurement": "solubility in solvents compatible with RP-HPLC", "setting": "[1]", "value": "insoluble"}
    ]},
    {"compound": "CC(=O)N[C@H](Cc1ccc2ccccc2c1)C(=O)N[C@@H](CCCNC(=N)N)C(=O)N[C@H](Cc1ccc2ccccc2c1)C(=O)N[C@H](CCCCN)C(N)=O", "note": "[Peptide 13, Ac-DNal(2’)-Arg-DNal(2’)-DLys-NH2] (Ac-[d2Nal]R[d2Nal][dK]-NH2)", "values": [
      {"measurement": "mMC1R partial agonist percentage of receptor activation relative to NDP-MSH", "setting": "mMC1R", "value": 30, "unit": "% NDP"},
      {"measurement": "selectivity for the mMC4R over the mMC3R (antagonist)", "setting": "mMC4R [2]", "value": "more than 150 fold"}
    ]},
    {"compound": "CC(=O)N[C@H](Cc1ccc2ccccc2c1)C(=O)N[C@@H](CCCNC(=N)N)C(=O)N[C@H](Cc1ccc2ccccc2c1)C(=O)N[C@@H](CCCNC(=N)N)C(N)=O", "note": "[Peptide 15, Ac-DNal(2’)-Arg-DNal(2’)-Arg-NH2] (Ac-[d2Nal]R[d2Nal]R-NH2)", "values": [
      {"measurement": "mMC1R partial agonist percentage of receptor activation relative to NDP-MSH", "setting": "mMC1R", "value": 60, "unit": "% NDP"},
      {"measurement": "selectivity for the mMC4R over the mMC3R (antagonist)", "setting": "mMC4R [2]", "value": "more than 150 fold"}
    ]},
    {"compound": "CC(=O)N[C@H](Cc1ccc2ccccc2c1)C(=O)N[C@@H](CCCNC(=N)N)C(=O)N[C@@H](Cc1c[nH]c2ccccc12)C(=O)N[C@H](CCCCN)C(N)=O", "note": "[Peptide 16, Ac-DNal(2’)-Arg-Trp-DLys-NH2] (Ac-[d2Nal]RW[dK]-NH2)", "values": [
      {"measurement": "selectivity for the mMC4R over the mMC3R (antagonist)", "setting": "mMC4R [2]", "value": "more than 150 fold"}
    ]},
    {"compound": "CC(=O)N[C@H](Cc1ccc2ccccc2c1)C(=O)N[C@@H](CCCNC(=N)N)C(=O)N[C@H](Cc1ccc(I)cc1)C(=O)N[C@H](Cc1ccc2ccccc2c1)C(N)=O", "note": "[Peptide 20, Ac-DNal(2’)-Arg-DPhe(pI)-DNal(2’)-NH2] (Ac-[d2Nal]R[dPhe(4-I)][d2Nal]-NH2)", "values": [
      {"measurement": "mMC4R pA2, previously reported", "setting": "mMC4R [3]", "value": 5.9},
      {"measurement": "mMC3R pA2, previously reported", "setting": "mMC3R [4]", "value": 5.6},
      {"measurement": "mMC4R partial agonist efficacy, % of the maximal NDP-MSH signal, previously reported", "setting": "mMC4R [5]; earlier report", "value": 37, "unit": "%"},
      {"measurement": "mMC1R agonist activity in words", "setting": "mMC1R; full agonist = 90% of maximal NDP-MSH signal", "value": "full agonist activity"}
    ]},
    {"compound": "NCC(N)=O", "note": "[glycinamide]", "values": [
      {"measurement": "effect on facial skin pigmentation", "setting": "[6]", "value": "decreased melanin index and skin pigmentation"},
      {"measurement": "effect on α-MSH-stimulated melanin production", "setting": "[7]", "value": "possessed anti-melanogenic activity"}
    ]},
    {"compound": "Ac-DNal(2’)-Arg-DNal(2’)", "values": [
      {"measurement": "IC50", "setting": "hMC4R", "value": 36.5, "unit": "nM"}
    ]},
    {"compound": "Ac-DNal(2’)-Arg-Nal(2’) [MCL0020]", "values": [
      {"measurement": "binding affinity at hMC3R", "setting": "hMC3R", "value": 1115, "unit": "nM"},
      {"measurement": "concentration up to which radiolabeled NDP-MSH was not displaced at hMC1R", "setting": "hMC1R", "value": "> 10", "unit": "µM"},
      {"measurement": "IC50", "setting": "hMC4R", "value": 15.4, "unit": "nM"},
      {"measurement": "binding affinity at hMC4R", "setting": "human (h)MC4R", "value": 11.63, "unit": "nM"}
    ]},
    {"compound": "Ac-His-DPhe-Arg-Trp-NH2 [reference compound]", "values": [
      {"measurement": "mMC4R agonist potency in words", "setting": "mMC4R [5]", "value": "nanomolar agonist potency"}
    ]},
    {"compound": "Ac-Nle-c[Asp-Oic-DBip-Pip-Trp-Lys]-NH2", "values": [
      {"measurement": "MC1R activation", "setting": "MC1R", "value": "up to 40%"},
      {"measurement": "MC3R activation", "setting": "MC3R", "value": "up to 40%"},
      {"measurement": "EC50", "setting": "MC5R; read-out: concentration activating the MC5R", "value": 0.99, "unit": "nM"},
      {"measurement": "MC4R activation", "setting": "MC4R", "value": "up to 40%"}
    ]},
    {"compound": "Ac-Nle-c[Asp-Pro-DNal(2’)-Arg-Trp-Lys]-NH2 [PG901]", "values": [
      {"measurement": "hMC5R agonist potency in words", "setting": "hMC5R", "value": "sub-nanomolar agonist potency"}
    ]},
    {"compound": "Ac-Oic-DBip-Pip-Trp-NH2", "values": [
      {"measurement": "EC50", "setting": "MC5R; read-out: MC5R agonist potency", "value": 1200, "unit": "nM"}
    ]},
    {"compound": "Ac-Ser-Tyr-Ser-Nle-Glu-Oic-DBip-Pip-Trp-Gly-Lys-Pro-Val-NH2 (WGKPV; N-terminal Ac-Ser-Tyr-Ser-Nle-Glu-Oic-DBip-Pip; C-terminal amide; printed: Trp-Gly-Lys-Pro-Val-)", "values": [
      {"measurement": "MC5R agonist potency in words", "setting": "MC5R", "value": "sub-nanomolar MC5R agonist"}
    ]},
    {"compound": "H-RFWG-NH2", "values": [
      {"measurement": "effect on α-MSH-stimulated melanin production", "setting": "[7]", "value": "inhibited α-MSH-stimulated melanin production"}
    ]},
    {"compound": "H-RLWG-NH2", "values": [
      {"measurement": "effect on α-MSH-stimulated melanin production", "setting": "[7]", "value": "inhibited α-MSH-stimulated melanin production"}
    ]},
    {"compound": "miniAGRP(87–120): truncated agouti-related protein melanocortin receptor antagonist (CVRLHESCLGQQVPCCDPCATCYCRFFNAFCYCR; UniProt O00253 87-120, looked up, fragment)", "values": [
      {"measurement": "mMC3R pA2", "setting": "mMC3R [8]", "value": "8.1±0.1"},
      {"measurement": "mMC4R pA2", "setting": "mMC4R [9]", "value": "8.5±0.1"}
    ]}
  ]
}
